# Measured values taken from PMC9376891 (Nature Communications, 2022).
# Molecular target: Rae1_31-368-Nup98_157-213 heterodimer (Rae1-Nup98 complex) (Homo sapiens, UniProt P52948+P78406)
# Test: biochemical
# Assay type: binding
# Rae1_31-368-Nup98_157-213 heterodimer (Rae1-Nup98 complex), sequence (P78406 31-368 limits assumed): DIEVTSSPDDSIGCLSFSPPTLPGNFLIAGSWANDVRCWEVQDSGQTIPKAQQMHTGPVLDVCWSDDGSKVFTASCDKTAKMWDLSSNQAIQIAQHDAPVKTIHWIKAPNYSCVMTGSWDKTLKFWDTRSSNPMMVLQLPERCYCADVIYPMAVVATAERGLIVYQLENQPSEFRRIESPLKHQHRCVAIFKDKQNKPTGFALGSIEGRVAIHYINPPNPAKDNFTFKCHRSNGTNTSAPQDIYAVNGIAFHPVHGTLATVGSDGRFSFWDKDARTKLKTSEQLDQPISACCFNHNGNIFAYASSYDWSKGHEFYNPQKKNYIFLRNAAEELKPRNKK
# Rae1_31-368-Nup98_157-213 heterodimer (Rae1-Nup98 complex), sequence (P52948 157-213 partner limits assumed): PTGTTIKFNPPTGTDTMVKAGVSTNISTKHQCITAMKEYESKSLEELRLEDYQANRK
smiles,measurement,value
CSCC[C@H](NC(=O)[C@H](CCC(=O)O)NC(=O)[C@@H](N)CC(=O)O)C(=O)N[C@@H](CC(=O)O)C(=O)N[C@H](C(=O)N[C@@H](Cc1c[nH]cn1)C(=O)N[C@@H](CC(=O)O)C(=O)N1CCC[C@H]1C(=O)N[C@@H](CC(N)=O)C(=O)N[C@@H](CCC(N)=O)C(=O)N[C@@H](CC(C)C)C(=O)N[C@@H](CCCNC(=N)N)C(=O)N[C@@H](Cc1ccc(O)cc1)C(=O)O)[C@@H](C)O [VSV M NTE],Kd,117 µM
